Reference: ChEMBL document CHEMBL1151085, “Design, synthesis and SAR of RGD peptide hybrids as highly efficient inhibitors of platelet aggregation” (Bioorg Med Chem Lett, 1995)

Species: Homo sapiens
Assay: In vitro for its inhibitory activity against platelet aggregation induced by ADP
Format: functional
`N=C(N)c1ccc(C(=O)NCCC(=O)N[C@@H](CC(=O)O)C(=O)NC(Cc2ccc(O)cc2)C(=O)O)cc1` (single isomer, unassigned) gave an IC50 of 20 nM. Work on `N=C(N)Nc1ccc(C(=O)NCC(=O)N[C@@H](CC(=O)O)C(=O)N[C@H](Cc2c[nH]c3ccccc23)C(=O)O)cc1` yielded an IC50 of 600 nM. With `N=C(N)Nc1ccc(C(=O)NCCC(=O)N[C@@H](CC(=O)O)C(=O)N[C@H](Cc2cccc3ccccc23)C(=O)O)cc1` the IC50 was 770 nM. `N=C(N)c1ccc(C(=O)NCCCC(=O)N[C@@H](CC(=O)O)C(=O)N[C@H](Cc2c[nH]c3ccccc23)C(=O)O)cc1` showed an IC50 greater than 50000 nM. `N=C(N)Nc1ccc(C(=O)NCCC(=O)N[C@@H](CC(=O)O)C(=O)N[C@H](Cc2ccc3ccccc3c2)C(=O)O)cc1` gave an IC50 of 320 nM. Molecule `N=C(N)Nc1ccc(C(=O)NCCC(=O)N[C@@H](CC(=O)O)C(=O)N[C@@H](C(=O)O)c2ccccc2)cc1` has an IC50 of 2900 nM. Work on `N=C(N)c1ccc(C(=O)NCCC(=O)N[C@@H](CC(=O)O)C(=O)N[C@H](Cc2c[nH]c3ccccc23)C(=O)O)cc1` (single isomer, unassigned) yielded an IC50 of 26 nM. For `N=C(N)Nc1ccc(C(=O)NCCC(=O)N[C@@H](CC(=O)O)C(=O)N[C@@H](Cc2ccccc2)C(=O)O)cc1`, the IC50 was 6100 nM. With `N=C(N)NCc1ccc(C(=O)NCCC(=O)N[C@@H](CC(=O)O)C(=O)N[C@H](Cc2c[nH]c3ccccc23)C(=O)O)cc1` the IC50 was 710 nM. `N=C(N)Nc1ccc(C(=O)N2CCC(C(=O)N[C@@H](CC(=O)O)C(=O)N[C@H](Cc3c[nH]c4ccccc34)C(=O)O)CC2)cc1` gave an IC50 of 4600 nM. For `N=C(N)Nc1ccc(C(=O)NCCC(=O)N[C@@H](CC(=O)O)C(=O)N[C@H](Cc2c[nH]c3ccccc23)C(=O)O)cc1`, the IC50 was 70 nM. For `N=C(N)Nc1ccc(C(=O)NCCC(=O)N[C@@H](CC(=O)O)C(=O)N[C@H](Cc2ccc(O)cc2)C(=O)O)cc1`, the IC50 was 190 nM. Molecule `N=C(N)Nc1ccc(C(=O)NCCC(=O)N[C@@H](CC(=O)O)C(=O)N[C@H](Cc2ccc(F)cc2)C(=O)O)cc1` has an IC50 of 1700 nM. With `N=C(N)Nc1ccc(C(=O)NCCC(=O)N[C@@H](CC(=O)O)C(=O)N[C@H](Cc2ccccc2)C(=O)O)cc1` the IC50 was 390 nM. For `N=C(N)Nc1ccc(C(=O)NC(Cc2ccc(O)cc2)C(=O)N[C@@H](CC(=O)O)C(=O)N[C@H](Cc2c[nH]c3ccccc23)C(=O)O)cc1` (some centres undefined), the IC50 was greater than 50000 nM. For `N=C(N)c1ccc(C(=O)NCCC(=O)N[C@@H](CC(=O)O)C(=O)N[C@H](Cc2ccc3ccccc3c2)C(=O)O)cc1`, the IC50 was 44 nM. In the case of `N=C(N)Nc1ccc(C(=O)NCCC(=O)N[C@@H](CC(=O)O)C(=O)N[C@H](CC2CCCCC2)C(=O)O)cc1`, the IC50 is reported as 88 nM. `N=C(N)c1ccc(C(=O)NCCC(=O)N[C@@H](CC(=O)O)C(=O)N[C@@H](Cc2ccc(O)cc2)C(=O)O)cc1` gave an IC50 of 1200 nM. In the case of `N=C(N)Nc1ccc(C(=O)NCCCC(=O)N[C@@H](CC(=O)O)C(=O)N[C@H](Cc2c[nH]c3ccccc23)C(=O)O)cc1`, the IC50 is reported as greater than 50000 nM. Molecule `N=C(N)c1ccc(C(=O)NCCC(=O)N[C@@H](CC(=O)O)C(=O)NC(Cc2ccc(F)cc2)C(=O)O)cc1` (single isomer, unassigned) has an IC50 of 47 nM.

Biological target: not listed separately
Assay: Displacement of [3H]SKF-107260 from […] integrin
Parameters: species or system Homo sapiens
For `N=C(N)c1ccc(C(=O)NCCC(=O)N[C@@H](CC(=O)O)C(=O)NC(Cc2ccc(O)cc2)C(=O)O)cc1` (single isomer, unassigned), the Ki was 75000 nM. For `N=C(N)c1ccc(C(=O)NCCC(=O)N[C@@H](CC(=O)O)C(=O)N[C@H](Cc2c[nH]c3ccccc23)C(=O)O)cc1` (single isomer, unassigned), the Ki was 35000 nM.

Biological target: Integrin alpha-IIb/beta-3 (Homo sapiens, UniProt P05106+P08514)
Sequence (P05106 27-788 limits assumed): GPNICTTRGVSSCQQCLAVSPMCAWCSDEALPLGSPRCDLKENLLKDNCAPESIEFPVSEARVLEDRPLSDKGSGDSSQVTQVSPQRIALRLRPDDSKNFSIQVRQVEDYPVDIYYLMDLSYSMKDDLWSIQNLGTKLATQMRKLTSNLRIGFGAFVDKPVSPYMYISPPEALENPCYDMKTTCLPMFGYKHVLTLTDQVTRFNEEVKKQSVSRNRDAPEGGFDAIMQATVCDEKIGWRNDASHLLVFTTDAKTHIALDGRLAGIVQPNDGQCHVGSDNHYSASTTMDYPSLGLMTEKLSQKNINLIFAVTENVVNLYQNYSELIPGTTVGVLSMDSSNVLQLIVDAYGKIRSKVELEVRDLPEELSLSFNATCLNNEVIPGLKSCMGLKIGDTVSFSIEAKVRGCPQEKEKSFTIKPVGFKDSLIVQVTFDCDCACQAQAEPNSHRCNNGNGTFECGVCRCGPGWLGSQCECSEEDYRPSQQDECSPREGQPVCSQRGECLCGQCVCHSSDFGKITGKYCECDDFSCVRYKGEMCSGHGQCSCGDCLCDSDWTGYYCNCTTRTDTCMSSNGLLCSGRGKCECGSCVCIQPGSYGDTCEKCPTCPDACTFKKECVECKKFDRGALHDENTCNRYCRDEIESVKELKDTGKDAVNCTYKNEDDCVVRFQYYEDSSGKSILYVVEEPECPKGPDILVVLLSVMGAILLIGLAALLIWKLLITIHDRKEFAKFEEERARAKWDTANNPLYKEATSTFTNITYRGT
Sequence (P08514 32-887 limits assumed): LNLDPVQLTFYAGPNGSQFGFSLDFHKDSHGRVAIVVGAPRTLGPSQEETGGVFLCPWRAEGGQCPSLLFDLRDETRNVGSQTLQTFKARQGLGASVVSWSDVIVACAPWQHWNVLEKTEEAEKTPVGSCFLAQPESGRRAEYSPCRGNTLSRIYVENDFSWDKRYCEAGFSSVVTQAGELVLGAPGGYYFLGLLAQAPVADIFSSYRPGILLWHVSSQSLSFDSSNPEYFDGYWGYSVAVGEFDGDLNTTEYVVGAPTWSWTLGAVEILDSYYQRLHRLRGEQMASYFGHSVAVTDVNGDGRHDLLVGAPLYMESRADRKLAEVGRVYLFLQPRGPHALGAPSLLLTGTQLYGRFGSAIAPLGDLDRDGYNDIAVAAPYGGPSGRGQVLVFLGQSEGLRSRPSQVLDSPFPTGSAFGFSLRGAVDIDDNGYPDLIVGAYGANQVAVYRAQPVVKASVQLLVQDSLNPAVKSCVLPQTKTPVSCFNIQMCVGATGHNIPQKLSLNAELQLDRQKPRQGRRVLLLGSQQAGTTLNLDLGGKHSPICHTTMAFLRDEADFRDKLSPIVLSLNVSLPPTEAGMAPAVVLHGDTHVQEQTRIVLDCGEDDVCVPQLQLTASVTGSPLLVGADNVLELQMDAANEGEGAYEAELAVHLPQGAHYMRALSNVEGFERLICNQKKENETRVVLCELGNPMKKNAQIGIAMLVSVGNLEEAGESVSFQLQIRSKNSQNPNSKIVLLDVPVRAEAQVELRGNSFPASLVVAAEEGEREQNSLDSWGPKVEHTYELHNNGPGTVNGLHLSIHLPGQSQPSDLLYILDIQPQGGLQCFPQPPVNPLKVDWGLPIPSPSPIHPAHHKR
Sequence (P08514 891-1039 limits assumed): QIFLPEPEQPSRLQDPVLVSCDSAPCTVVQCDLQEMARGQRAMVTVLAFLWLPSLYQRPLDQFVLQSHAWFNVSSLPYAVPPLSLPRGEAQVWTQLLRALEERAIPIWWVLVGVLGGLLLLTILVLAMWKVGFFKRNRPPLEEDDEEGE
Assay: Displacement of [3H]SKF-107260 from alpha IIb beta3 integrin
Format: protein-complex assay
With `N=C(N)c1ccc(C(=O)NCCC(=O)N[C@@H](CC(=O)O)C(=O)NC(Cc2ccc(O)cc2)C(=O)O)cc1` (single isomer, unassigned) the Ki was 2.1 nM. Molecule `N=C(N)c1ccc(C(=O)NCCC(=O)N[C@@H](CC(=O)O)C(=O)N[C@H](Cc2c[nH]c3ccccc23)C(=O)O)cc1` (single isomer, unassigned) has a Ki of 2.3 nM.
